Data on 18 molecules can be found in ChEMBL document CHEMBL5150060 (J Med Chem, 2022).

Series [1] deals with T1, Histone deacetylase 8 (Homo sapiens) (UniProt Q9BY41).
T1 sequence (whole entry): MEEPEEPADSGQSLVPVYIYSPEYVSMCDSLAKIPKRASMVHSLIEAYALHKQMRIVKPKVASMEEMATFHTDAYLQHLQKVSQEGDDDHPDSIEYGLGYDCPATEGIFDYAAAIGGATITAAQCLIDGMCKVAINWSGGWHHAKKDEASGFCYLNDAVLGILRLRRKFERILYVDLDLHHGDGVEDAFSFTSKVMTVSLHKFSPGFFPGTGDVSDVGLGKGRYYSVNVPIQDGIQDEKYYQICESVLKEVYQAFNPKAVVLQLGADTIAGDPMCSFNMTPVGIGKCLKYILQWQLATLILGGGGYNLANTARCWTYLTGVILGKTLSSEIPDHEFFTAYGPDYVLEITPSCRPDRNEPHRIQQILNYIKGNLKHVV
Description: Inhibition of HDAC8 in human Jurkat T cells assessed as increase in H3K27 acetylation at 10 uM after 6 hrs by Western blot analysis. The series is classed as cell-based. For orientation: A western blot detects proteins with antibodies after separation by electrophoresis.

For series [2], the target named is T2, Histone deacetylase 1 (Homo sapiens, UniProt Q13547). As to the kind of experiment: Inhibition of recombinant human HDAC1 using p53 (Ac-RHKK(Acetyl)-AMC) as substrate preincubated for 5 mins followed by substrate addition and measured after 90 mins by fluorescence based analysis.
Series [3] concerns the target Histone deacetylase 3 (Homo sapiens, UniProt O15379). Description: Inhibition of recombinant human HDAC3 using p53 (Ac-RHKK(Acetyl)-AMC) as substrate preincubated for 5 mins followed by substrate addition and measured after 30 mins by fluorescence based analysis.
Series [4] has as its system HEK293. As to the kind of experiment: Cytotoxicity against HEK293 cells assessed as reduction in cell viability at 50 uM after 24 hrs by alamar blue assay. The format is toxicity, cell-based. Conditions: human, hek293, 24 h.
Series [5] deals with T3, Histone deacetylase 8 (Homo sapiens, UniProt Q9BY41).
T3 sequence (Q9BY41 whole entry): T1 sequence (whole entry)
Description: Inhibition of recombinant human HDAC8 using (Abz-SRGK(thio-TFA)FFRR-NH2) as substrate preincubated for 5 mins followed by substrate addition by fluorescence based analysis.

The target of series [6] is T4, Histone deacetylase 2 (Homo sapiens, UniProt Q92769). As to the kind of experiment: Inhibition of recombinant human HDAC2 using p53 (Ac-RHKK(Acetyl)-AMC) as substrate preincubated for 5 mins followed by substrate addition and measured after 30 mins by fluorescence based analysis.
For series [7], the target named is T1, Histone deacetylase 8 (Homo sapiens). Description: Inhibition of recombinant human HDAC8 at 10 uM using (Abz-SRGK(thio-TFA)FFRR-NH2) as substrate preincubated for 5 mins followed by substrate addition by fluorescence based analysis relative to control.
Series [8] has the same target. As to the kind of experiment: Inhibition of recombinant human HDAC8 at 1 uM using (Abz-SRGK(thio-TFA)FFRR-NH2) as substrate preincubated for 5 mins followed by substrate addition by fluorescence based analysis relative to control.
The target of series [9] is T2, Histone deacetylase 1. As to the kind of experiment: Inhibition of recombinant human HDAC1 at 10 uM using p53 (Ac-RHKK(Acetyl)-AMC) as substrate preincubated for 5 mins followed by substrate addition and measured after 90 mins by fluorescence based analysis relative to control. The settings on record: time 95.0 min.
In series [10] the target is T4, Histone deacetylase 2. As to the kind of experiment: Inhibition of recombinant human HDAC2 at 10 uM using p53 (Ac-RHKK(Acetyl)-AMC) as substrate preincubated for 5 mins followed by substrate addition and measured after 30 mins by fluorescence based analysis relative to control. Conditions: time 35.0 min.
Series [11] addresses T4, Histone deacetylase 2. Description: Inhibition of recombinant human HDAC2 at 1 uM using p53 (Ac-RHKK(Acetyl)-AMC) as substrate preincubated for 5 mins followed by substrate addition and measured after 30 mins by fluorescence based analysis relative to control. Conditions: time 35.0 min.
Series [12] has as its target T2, Histone deacetylase 1. Description: Inhibition of recombinant human HDAC1 at 1 uM using p53 (Ac-RHKK(Acetyl)-AMC) as substrate preincubated for 5 mins followed by substrate addition and measured after 90 mins by fluorescence based analysis relative to control. Conditions: time 95.0 min.

By inhibition is commonly meant the share of the control response that was lost under treatment. Broadly, the pIC50 is the negative decadic logarithm of the IC50, by convention in mol/L.

SMILES strings stand for the structures. pIC50: −log10 of the molar value. Calls of active or inactive are those of the source. The rule behind the calls is not given here.

Histone deacetylase 3, sequence (O15379 whole entry): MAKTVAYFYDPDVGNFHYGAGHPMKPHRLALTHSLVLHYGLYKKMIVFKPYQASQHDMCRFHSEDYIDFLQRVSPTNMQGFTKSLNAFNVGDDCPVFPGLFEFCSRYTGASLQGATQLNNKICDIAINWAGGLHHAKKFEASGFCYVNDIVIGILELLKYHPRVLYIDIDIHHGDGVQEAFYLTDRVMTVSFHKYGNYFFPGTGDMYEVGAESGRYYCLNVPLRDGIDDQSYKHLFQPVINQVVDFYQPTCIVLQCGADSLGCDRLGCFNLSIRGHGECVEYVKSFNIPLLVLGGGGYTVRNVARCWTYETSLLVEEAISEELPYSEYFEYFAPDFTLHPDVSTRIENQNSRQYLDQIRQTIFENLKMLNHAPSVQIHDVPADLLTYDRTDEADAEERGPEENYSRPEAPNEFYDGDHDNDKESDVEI
T2 sequence (Q13547 whole entry): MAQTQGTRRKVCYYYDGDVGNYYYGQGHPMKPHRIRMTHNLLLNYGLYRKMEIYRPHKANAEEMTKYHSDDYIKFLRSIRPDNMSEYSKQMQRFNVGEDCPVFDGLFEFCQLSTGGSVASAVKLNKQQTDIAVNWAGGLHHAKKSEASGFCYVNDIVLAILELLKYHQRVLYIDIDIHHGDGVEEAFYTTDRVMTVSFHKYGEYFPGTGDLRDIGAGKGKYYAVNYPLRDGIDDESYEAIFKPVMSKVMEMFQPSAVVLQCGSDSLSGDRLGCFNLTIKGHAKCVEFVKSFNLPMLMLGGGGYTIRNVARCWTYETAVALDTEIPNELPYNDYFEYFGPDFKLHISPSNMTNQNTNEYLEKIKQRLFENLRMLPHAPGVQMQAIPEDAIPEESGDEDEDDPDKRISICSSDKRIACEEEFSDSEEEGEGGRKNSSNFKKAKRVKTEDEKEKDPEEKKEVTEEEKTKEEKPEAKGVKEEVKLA
T4 sequence (Q92769 whole entry): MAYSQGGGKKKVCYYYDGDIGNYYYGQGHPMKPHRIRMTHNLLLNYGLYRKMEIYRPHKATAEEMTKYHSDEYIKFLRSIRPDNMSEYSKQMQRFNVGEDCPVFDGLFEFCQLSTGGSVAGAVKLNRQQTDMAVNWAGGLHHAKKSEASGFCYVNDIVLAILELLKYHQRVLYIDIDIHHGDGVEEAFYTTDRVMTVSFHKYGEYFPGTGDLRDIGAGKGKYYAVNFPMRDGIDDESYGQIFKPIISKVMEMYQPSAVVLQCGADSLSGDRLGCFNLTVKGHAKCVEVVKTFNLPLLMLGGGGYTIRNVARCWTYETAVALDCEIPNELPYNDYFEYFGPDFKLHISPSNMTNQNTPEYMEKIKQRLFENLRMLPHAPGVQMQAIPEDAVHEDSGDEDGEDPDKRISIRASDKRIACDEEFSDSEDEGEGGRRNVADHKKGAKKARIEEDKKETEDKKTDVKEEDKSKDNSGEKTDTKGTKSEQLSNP

`CCCCCCNNC(=O)c1cnc(NCc2cccc3ccccc23)nc1`: the inhibition entry in series [1] is “Active”. The pIC50 in series [2] is 5.08; in [3], under 4.70; in [5], 7.20; in [6] it was under 4.70. In addition, the Cell viability in series [4] turned out to be 65.7%.

As to `CCCCCCNNC(=O)c1cnc(N2CCN(CCc3c[nH]c4ccccc34)CC2)nc1`, the pIC50 in series [2] was 6.07; in series [3], 6.00; in [5] it was 7.89; in series [6], 5.85. Besides, the Cell viability in series [4] came to 47.1%.

As for `CCCCCNNC(=O)c1ccc(-c2ccc(CNC(C)=O)cc2)cc1`, the pIC50 in series [2] was 6.18; in series [3], 5.82; in [5] it was 6.46; in series [6] it was 5.70. Also, the Cell viability in series [4] turned out to be 90.8%.

In the case of `CCCCCCNNC(=O)c1cnc(N2CCN(Cc3cn(C)c4ccccc34)CC2)nc1`, the inhibition entry in series [1] is “Active”. Further, the pIC50 in series [2] was 6.77; in series [3] it was 6.52; in series [5] it was 7.85; in series [6] it was 6.48. Also, the Cell viability in [4] stood at 1.6%.

Consider `CCCNNC(=O)c1cnc(NCc2ccc(CNC(C)=O)cc2)nc1`, for which the inhibition result in [1] was “Active”. Moreover, the pIC50 in series [2] is 6.54; in series [3], 6.96; in series [6], 6.04. In series [4], the Cell viability amounted to 93.1%.

For `CCCCNNC(=O)c1ccc(-c2ccc(CNC(C)=O)cc2)cc1`, the pIC50 is 6.21 in [2], 6.46 in [3], 6.44 in series [5] and 5.96 in [6]. Besides, the Cell viability in series [4] came out at 80.1%.

Regarding `CCCNNC(=O)c1cnc(NCc2cccc3ccccc23)nc1`, the inhibition in series [7] amounted to 83%; in [8] it was 36%; in series [9], 91%; in series [10], 93%; in [11], 46%; in series [12], 53%. Further, the pIC50 in series [3] is 7.09. Also, the Cell viability in [4] was 78.9%.

For the molecule `CCCCCCNNC(=O)c1cnc(N2CCN(CCc3cn(C)c4ccccc34)CC2)nc1`, the inhibition result in [1] is “Active”. Besides, the pIC50 in series [2] was 6.40; in series [3], 5.85; in [5], 7.64; in series [6], 5.92. In series [4], the Cell viability is given as 31.8%.

Take `CCCNNC(=O)c1ccc(CNC(C)=O)cc1`: the pIC50 is 5.80 in series [2], 5.80 in [3] and 5.26 in [6]. In series [4], the Cell viability is on record as 81.2%.

Consider `CCCCCCNNC(=O)c1cnc(NCc2ccc(CNC(C)=O)cc2)nc1`, for which the inhibition entry in [1] is “Active”. Besides, the pIC50 in [2] was 6.02; in [3], 5.07; in series [5], 7.72; in [6], 5.35. The Cell viability in series [4] was 79.4%.

As for `CCCNNC(=O)c1cnc(NCc2cc(Cl)ccc2Cl)nc1`, the inhibition in series [7] came out at 83%; in [8], 33%; in series [9], 88%; in [12] it was 66%. For the same molecule, the pIC50 in series [3] is 7.24. In [4], the Cell viability came to 78.2%.

As to `CCCCCCNNC(=O)c1cnc(NCCc2ccccc2)nc1`, the inhibition entry in [1] was “Active”. For the same molecule, the negative logarithm of the IC50 (pIC50) is 5.66 in [2], 5.14 in [3], 7.55 in series [5] and 4.92 in series [6]. Further, the Cell viability in [4] worked out at 90.1%.

In the case of `CCCCCCNNC(=O)c1ccc(CNC(C)=O)cc1`, the pIC50 is 4.32 in series [2], under 4.70 in series [3], 7.64 in series [5] and 4.92 in series [6]. Also, the Cell viability in series [4] came out at 113.3%.

Regarding `CCCNNC(=O)c1cnc(NCc2ccc(Cl)cc2)nc1`, the inhibition worked out at 88% in [7]; 62% in series [8]; 92% in series [9]; 96% in series [10]; 61% in series [11]; 54% in [12]. Besides, in series [3], the pIC50 was 7.43. Also, the Cell viability in [4] came out at 83.2%.

As to `CCCNNC(=O)c1cnc(N2CCN(C)CC2)nc1`, the pIC50 is 6.23 in series [2], 6.92 in series [3], 6.60 in series [5] and 5.62 in [6]. In addition, the Cell viability in series [4] was 93.6%.

On to `CCCCNNC(=O)c1cnc(NCc2ccccc2)nc1`, for which the inhibition in series [7] worked out at 94%; in series [8], 66%; in series [9], 85%; in [10], 93%; in [11], 46%; in series [12], 61%. Besides, the pIC50 in series [3] is 6.70. Also, in [4], the Cell viability came out at 88.9%.

As for `CCCCCCNNC(=O)c1cnc(NCc2ccccc2)nc1`, the pIC50 was 6.25 in series [2], 5.52 in series [3], 7.80 in series [5] and 5.49 in series [6]. Moreover, in [4], the Cell viability is on record as 88.4%.

Take `CCCNNC(=O)c1cnc(NCc2ccccc2Cl)nc1`: the inhibition in [7] was 87%; in series [8], 43%; in [9] it was 89%; in series [10] it was 92%; in [11] it was 55%; in series [12], 71%. In addition, the pIC50 in [3] is 7.22. Further, in series [4], the Cell viability stood at 80.7%.
